Assay results reported in publication PMC8400257, “2-Phenoxy-3-Trichloromethylquinoxalines Are Antiplasmodial Derivatives with Activity against the Apicoplast of Plasmodium falciparum” (Pharmaceuticals, 2021).
Entries after “also recorded” stand apart in the source; their conditions may differ.

Key:
[1] = system: P. falciparum ART-resistant strain F32-ART5; assay: Standard in vitro chemo-sensitivity assay, F32-ART5; type: cell-based; conditions: Plasmodium falciparum, F32, 48 h, read-out: Mean ± SEM EC50 values F32-ART5
Protocol: (§1) The Plasmodium falciparum ART-resistant strain F32-ART5 and its tween ART-sensitive strain F32-TEM [33, 41] were cultivated at 37 °C with 5% CO2 in human red blood cells (EFS, French Blood Bank) diluted to 2% hematocrit in RPMI-1640 medium (Biowest, Nuaillé, France) supplemented with 5% human serum (EFS, French Blood Bank), as previously reported.
(§2) The chemosensitivity assay was carried out in 96-well culture plates on synchronized ring-stage parasites at 1% parasitemia obtained after D-sorbitol treatment. The antiplasmodial activities were evaluated using the SYBR Green I method. Parasites were exposed for 48 h to a range of concentrations of the different tested compounds. Each drug concentration was tested in triplicates. Parasite pellets were then washed in 1× PBS prior to lysing red blood cells at −20 °C overnight. Then, the plates were thawed and 100 µL of each well were transferred into a black 96-well plate. Next, 100 µL per well of SYBR Green I (Thermo Fisher) diluted at a final concentration of 2× in lysis buffer (20 mM Tris base pH 7.5, 5 mM EDTA, 0.008% w/v saponin, 0.08% w/v Triton X-100) were added and left to incubate for 1 h at room temperature prior to reading the plates on BioTek FLx800 Microplate Fluorescence Reader (λexcitation = 485 nm, λemission = 528 nm). Relative EC50 values were determined using GraphPad Prism software.

[2] = system: P. falciparum ART-sensitive strain F32-TEM; assay: Standard in vitro chemo-sensitivity assay, F32-TEM; type: cell-based; conditions: Plasmodium falciparum, F32, 48 h, read-out: Mean ± SEM EC50 values F32-TEM
Protocol: as §1, §2

[3] = system: P. falciparum apicoplast; assay: Immunofluorescence assay of apicoplast biogenesis on treated blood-stage parasites; type: cell-based, Plasmodium falciparum; conditions: 48 h, 0.2 µM
Protocol: (§3) To determine the impact of (3i) on apicoplast biogenesis, parasites were treated for 48 h with 0.2 µM of (3i) or 0.2 µM of (2i) (a control of (3i) for which the active CCl3 was replaced by a methyl CH3 group) and compared to untreated parasites by immunofluorescence assay. […] In order to determine if the apicoplast is the main target of (3i), we performed a growth assay over three life cycles to assess a potential delayed death effect, one of the major signature for compounds affecting apicoplast. […] The second interpretation could be that, unlike chloramphenicol or doxycycline, which cause a delayed death phenotype on Plasmodium, (3i) could act like fosmidomycin or actinonin and cause a rapid death phenotype.
Plasmodium falciparum blood stage parasites were maintained at 2% hematocrit in 1640 RPMI-HEPES, supplemented with 5% AlbuMAX II (GIBCO) and 0.25% gentamycin. Parasites were grown sealed Perspex chambers gassed with beta mix gas (1% O2, 5% CO2 and 94% N2) at 37 °C and maintained on 48-h cycles. Cultures were tightly synchronized at ring stage using sorbitol treatment (5% v/v) as previously described.
Prior to the treatment, parasites were synchronized using 5% sorbitol. After 48 h treatment ([…] or DMSO) parasites were fixed using 4% paraformaldehyde (PFA) and 0.0075% glutaraldehyde for 30 min at room temperature. […]

[4] = system: Plasmodium falciparum blood stage parasites; assay: Growth assay over three life cycles (delayed death); type: cell-based; conditions: 0.2 µM; 48, 96, 144 h
Protocol: as §3
To observe a potential effect of delayed death of the molecule on the parasite, Plasmodium was maintained on three life cycles (48 h). […] Fluorescence from each well was measured with TECAN infinite M200 plate reader (excitation: 485 nm, emission: 538 nm and integration time: 1000 μs). […] A graph was obtained by performing the ration of the treated culture fluorescence intensity on the untreated culture fluorescence intensity (n = 3).

[5] = system: primary human hepatocytes; assay: Hepatotoxicity by count of DAPI-stained hepatocyte nuclei; type: cell-based; conditions: dose range up to 30 µM
Protocol: Finally, we studied the hepatotoxicity of (3i). This was carried out by quantification of DAPI-stained hepatocyte nuclei in culture wells. Generally, if a drug is hepatotoxic, it causes death and detachment of hepatocytes leading to less hepatocyte nuclei counts.
Upon immunostaining of parasites, the study plates were scanned using a CellInsight high-content screening platform equipped with the Studio HCS software (Thermo Fisher Scientific, Waltham, MA, USA). The details of analysis is provided elsewhere. The number of host hepatocyte nuclei per well was counted by the system as a measure of toxicity of 3i towards the liver cells.

O=[N+]([O-])c1ccc(Oc2nc3ccccc3nc2C(Cl)(Cl)Cl)cc1 [3i, 2-(4-Nitrophenoxy)-3-trichloromethylquinoxaline]
EC50 [1]: 400 ± 105 nM
EC50 [2]: 392 ± 34 nM
Effect on apicoplast biogenesis (immunofluorescence) [3]: effect on the apicoplast biogenesis; also recorded: doted single non-elongated apicoplast at the mid-trophozoite life stage
Parasite growth over three life cycles (ratio treated/untreated) [4]: drastic reduction in the parasite growth within the first life cycle
Cytotoxicity on human hepatocytes (hepatocyte nuclei counts) [5]: no cytotoxicity on human hepatocytes; also recorded: no cytotoxicity was observed
